Legend:
[1] = system: right axillar lymphnode (recurrence of melanoma); assay: Example 11: slow release injection into melanoma axillar lymphnode; assay type: in vivo, human
[2] = system: meningioma; assay: Example 16: stereotactic injection into meningioma; assay type: in vivo, human
[3] = system: lymphnode in the left cervical area (tonsillar carcinoma); assay: Example 13: rods implanted in cervical lymphnode; assay type: in vivo, human
Description: A patient presents with a 10 cm diameter lymphnode located in the left cervical area. […] The patient refuses any kind of prolonged therapy. They accept a tumour implantation of a slow release drug. Fourteen 7 cm long rods of lactide-capronolactone containing rotenone, are implanted. The total dose of rotenone delivered over 2 weeks by the rods is 60 mg. […] The patient accepts radiation therapy.

[4] = system: metastasis in the 10th dorsal vertebra from a breast tumor; assay: Example 14: intratumoural injection into vertebral metastasis; assay type: in vivo, human; conditions: on the next day; 20 mg as SLN in 1 ml poly(orthoesther) paste
Description: A person presents with metastases originating from a breast tumor operated and irradiated 3 years before. […] The patient is young and one wants to keep radiotherapy for further recurrences. They benefit from an intratumoural injection of 1 ml of polymeric paste (poly(orthoesther)), containing 20 mg of Antimycin A formulated as SLN. The paste is deposited in the center of the metastasis under fluoroscopy control. The pain drops on the next day by ⅔. […] This allows to visualize the elution rate and the melting process of the polymer, and to better follow and understand the kinetics of the treatment.
At 3 weeks the polymer has nearly totally disappeared, and the patient is sent for the injection of a cement (methylmethacrylate) inside the vertebra, under fluoroscopy. The pain disappears totally and the patient is followed up locally, ready to be treated when new metastases appear.

[5] = system: metastatic prostate cancer; assay: Phase I clinical trial of Rhodamine 123 intra-venous infusions; assay type: in vivo, human; conditions: for a 70 kg patient
Description: The Huntington Medical Research Institutes are addressing this issue in metastatic prostate cancer (Lawrence W. Jones, M. D. Huntington Memorial Hospital). Recently this institute published the results of a clinical trial where 33 patients with metastatic prostate cancer were treated with Rhodamine 123 intra-venous infusions.
Because inhibitors of oxidative phorphorylation are extremely toxic to a subject in the doses needed for efficacy via the systemic route, such inhibitors have been largely overlooked for effective treatment of conditions such as cancer. […] It is also known that the maximal tolerated dose of Rhodamine 123 delivered intra-venously in man is 95 mg/m^2. For a 70 kg patient, the maximum dose of systemically delivered rhodamine is about 150 mg. […] There was an accumulation of rhodamine in the prostate of the patients, but it was not sufficient to provoke a significant response.

[6] = system: tumour; assay: Rhodamine delivered directly in the tumour (slow release); assay type: in vivo; conditions: 40 or 50 mg directly in the tumour
Excerpt: By locally delivering oxidative phosphorylation inhibitors into proliferating cells in a slow release formulation, the delivery period is prolonged i.e. the inhibitors are not cleared by the liver, and the dose received by the tumour is effectively higher than using systemic delivery. Furthemore, the lethal dose can be greatly exceeded. […] Such a dose, delivered systemically, would require 100 g of rhodamine, more than 1000 times the lethal dose. Thus, a composition comprising an oxidative phorphosrylation inhibitor in a slow release formulation increases the effective dose to the tumour and permits greater than lethal dosing.

[7] = system: metastatic prostate cancer; conditions: cited from earlier work
[8] = rodents; cited from earlier work
[9] = system: right breast tumor; assay: Example 12: rods implanted in breast tumor; assay type: in vivo, human

## O=C(O)CF [fluoroacetate]
[1]; 6 months later, after additional 6 sessions of radiotherapy at 5 Gy
  remaining induration size: 1 cm
[1]; initially 5 cm, 1 month after 4 mg fluoroacetate slow release
  lymphnode size: 3 cm
[2]; MRI two months after 4 mg in poly(ortho)ester
  lesion finding on MRI: partial necrosis
[2]; after surgical intervention
  tumour necrosis on histological examination: 80%
[2]; initially 3 cm, MRI two months after 4 mg in poly(ortho)ester
  lesion size: 2.5 cm

## C=C(C)[C@H]1Cc2c(ccc3c2O[C@@H]2COc4cc(OC)c(OC)cc4[C@@H]2C3=O)O1 [rotenone]
[3]; initially 10 cm, 6 weeks after rods delivering 60 mg over 2 weeks
  mass size: 5.5 cm
[3]; new implantation with 30 mg plus radiation dose of 50 Gy
  lymphnode outcome: totally disappears

## Antimycin A
[4]
  drop of pain: ⅔

## rhodamine
[5]
  maximum dose of systemically delivered rhodamine: about 150 mg
[6]
  tumour outcome: tumour death
[7]; systemic, at the maximum non-lethal dose
  effect on prostate tumours: no useful effect

## rhodamine 123
[8]
  LD10 (the dose which kills 10% of animals): 20 mg/kg
[7]; 33 patients with metastatic prostate cancer, intra-venous infusions
  tumour response: no significant tumour response
[7]; 33 patients with metastatic prostate cancer, intra-venous infusions, in some cases
  PSA change: slight PSA reduction
[7]; delivered intra-venously in man
  maximal tolerated dose: 95 mg/m^2

## sodium arsenate
[9]; after second session, 3 rods, total dose 30 mg
  tumor diameter: 3 cm
[9]; initially 6 cm, 2 months after four rods with 10 mg each
  tumor diameter: 4 cm
